Test results as given in article PMC8482815, “Targeting Host Glycolysis as a Strategy for Antimalarial Development” (Frontiers in Cellular and Infection Microbiology, 2021).
Entries after “also recorded” stand apart in the source; their conditions may differ. Read-outs that look alike come from different tables or passages of the source.

Key:
P. falciparum strain 3D7 = experiment: Plasmodium falciparum growth inhibition assay (Picogreen DNA content, three-day incubation); type: cell-based; conditions: for S.I. + pyruvate (Supplemental Table 4): MetHb EC50 / parasite EC50, with pyruvate; for S.I. - pyruvate (Supplemental Table 4): MetHb EC50 / parasite EC50, without pyruvate; for EC50: Plasmodium falciparum; for S.I. Fold Change (Supplemental Table 4): change in S.I. with versus without pyruvate; for T.I. Fold change: change in T.I. with versus without 1mM pyruvate; for T.I. + pyruvate / T.I. - pyruvate: therapeutic index = [EC50 for MetHb formation]/[EC50 for parasite growth inhibition]; for T.I. + pyruvate: with 1mM pyruvate; for T.I. - pyruvate: without pyruvate
Procedure: (§1) Banked blood (Saint Louis Children’s Hospital) and fresh blood [healthy donors] was washed and stored at 50% hematocrit at 4°C up to 1 month past the clinical expiration date and collection date, respectively. Parasite strains provided by the Malaria Research and Reference Reagent Resource Center (MR4) as follows: 3D7 (MRA-102); K1 (MRA-159); D10 (MRA-201); and IPC-5202 (MRA-1240). Unless indicated, erythrocytes were cultured as previously described at 2% hematocrit in complete media (incomplete media supplemented with 27mM sodium bicarbonate, 11mM glucose, 5mM HEPES, 1mM sodium pyruvate, 0.37mM hypoxanthine, 0.01mM thymidine, 10µg/mL gentamicin, and 0.5% Albumax I (Thermo-Fisher) under 5% O2/5% CO2/90% N2 atmosphere at 37°C ([Guggisberg et al., 2014]).
(§2) Asynchronous cultures diluted to 1% parasitemia in 100μL wells were subjected to drug dilutions, solvent controls, and untreated uninfected erythrocyte controls in technical duplicates. Following a three-day incubation, DNA content was quantified using Picogreen (Life Technologies), as previously described ([Corbett et al., 2004]). Half-maximal effective concentrations (EC50) were determined from nonlinear regression of three biological replicates (GraphPad Prism).

human erythrocytes = experiment: Detection and quantification of MetHb formation in cultured erythrocytes; type: cell-based; conditions: Homo sapiens, Erythrocyte
Procedure: as §1
MetHb was detected by measuring absorbance in the 630-640nm range, which is specific from other hemoglobin subforms (oxyhemoglobin, deoxyhemoglobin, and carboxyhemoglobin). Supernatants were removed and erythrocyte pellets were fully lysed and diluted, as described above. The absorption peak for oxyhemoglobin (575nm) and MetHb (630nm) were measured and the EC50 of MetHb formation was determined using non-linear regression analysis (GraphPad Prism).

P. berghei ANKA = type: in vivo, Swiss Webster mice
Procedure: (§3) Groups of five female Swiss-Webster mice were injected intraperitoneally (i.p.) with 10^3 luciferase-expressing P. berghei ANKA parasites ([Franke-Fayard et al., 2008]). Forty-eight hours post infection, mice were injected i.p. daily for five days with either 200µL of 2% methylcellulose/0.5% Tween80, 40mg/kg chloroquine, 100mg/kg HEX, 30mg/kg POM-HEX, or 5mg/kg POM-SF. Enolase inhibitors dosing were selected as approximately 3-fold lower than the maximum acutely tolerated dose for each compound by i.p. injection. Day 7 post-infection, mice were injected with 150mg/kg D-luciferin potassium salt in PBS (GoldBio) and imaged on an IVIS 100 and parasite burden assessed (Xenogen LivingImage).
The glucose mimetic 2-DG and enolase inhibitors POM-HEX, and HEX were evaluated in the P. berghei mouse model of cerebral malarial, as previously described ([Wang et al., 2018]). Briefly, in addition to groups of mice (n = 5) dosed as described above for POM-HEX and HEX, 2-DG was administered to an additional group (n = 5) at 200mg/kg twice daily and all were monitored for survival, parasitemia (blood smear Giemsa), and clinical signs of cerebral malaria (paralysis, deviation of the head, ataxia, convulsions, and coma) over 15 days.

[1] = Pharmacokinetics of HEX in non-human primates (plasma, NMR 31P-1H HSQC); type: in vivo, cynomolgus monkeys (Macaca fascicularis)
Procedure: (§4) Adult male cynomolgus monkeys (Macaca fascicularis) with weight of 2.5-3.5 kg were used for PK studies (n = 1). To prepare HEX for injection, a stock solution of 150 mg/mL HEX in water with final pH of 7.2-7.4 was prepared. Just prior to injection, this stock was diluted with saline to desired concentration and filtered with 0.22 µm filter. A dose of 100 mg/Kg of HEX was injected subcutaneously in an overnight fasted monkey. Blood samples were collected at the following time points: before injection, 1 hr, 2 hrs, 4 hrs (when food was also given to a monkey), 8 hrs, and 24 hrs after injection. Also, a dose of 400 mg/Kg of HEX was administrated through oral gavage. To compare the PK studies in non-human primates with rodents, a 400 mg/kg dose of HEX was also injected subcutaneously in female mice (n = 1), and blood was collected before, 1 hr, and 2 hrs after injection. HEX concentrations in plasma were measured by using nuclear magnetic resonance (NMR) spectroscopy. Two hundred microliters of plasma were extracted with four hundred microliters of −20°C precooled methanol and incubated in −20°C for 45 minutes followed by spinning down in 4°C at 17,000 × g for 30 min to separate supernatant. The supernatant then was concentrated by speedvac for 4 hours and dissolved in 470 μL D2O (Sigma Aldrich,151882) and 30 μL D2O with 3%TPS as an internal standard (Sigma Aldrich, 450510) for NMR studies. NMR experiments were performed on Bruker Avance III HD 500 MHz spectrometer equipped with cryoprobe and Bruker 300 MHz with broad band observe probe. […] NMR spectra were analyzed using 3.1 version of TopSpin. HEX was quantified in the sample with high concentration of the drug (100 mpk, 1 hr after SC injection) by comparing integrals of HEX and TSP (reference) in 1H spectra. […]

[2] = Pharmacokinetics of HEX in mice (plasma, NMR 31P-1H HSQC); type: in vivo
Procedure: as §4

[3] = design: method as in Lin et al., 2020; conditions: cynomolgus monkeys, 100 mpk SC; replotted, ref Lin et al., 2020; cited from earlier work
[4] = tested on: P. falciparum K1 (chloroquine and sulfadoxine-pyrimethamine resistant); experiment: Plasmodium falciparum growth inhibition assay, drug-resistant line K1; type: cell-based; conditions: K1, read-out: EC50 (nM), P. falciparum K1
Procedure: (§5) Banked blood (Saint Louis Children’s Hospital) and fresh blood [healthy donors] was washed and stored at 50% hematocrit at 4°C up to 1 month past the clinical expiration date and collection date, respectively. Parasite strains provided by the Malaria Research and Reference Reagent Resource Center (MR4) as follows: 3D7 (MRA-102); K1 (MRA-159); D10 (MRA-201); and IPC-5202 (MRA-1240). […]
as §2, with “Prism). […]” for “Prism).”
(§6) Supplemental Table 5. […] Half-maximal inhibitor concentrations (EC50s) were determined for drug resistant malaria parasites and compared to the sensitive 3D7 strain. The respective EC50s are calculated from each of the independent biological replicates using a non-linear regression of the log of the inhibitor concentration with data from each technical replicate normalized to maximal and minimal growth using the software package GraphPad Prism. […]
(§7) means ± s.e.m calculated from three biological replicates.

[5] = tested on: P. falciparum D10 (mefloquine resistant); experiment: Plasmodium falciparum growth inhibition assay, drug-resistant line D10; type: cell-based; conditions: D10, read-out: EC50 (nM), P. falciparum D10
Procedure: as §5
as §2, with “Prism). […]” for “Prism).”
as §6, §7

[6] = tested on: P. falciparum IPC-5202 (chloroquine and artemisinin resistant); experiment: Plasmodium falciparum growth inhibition assay, drug-resistant line IPC-5202; type: cell-based; conditions: read-out: EC50 (nM), P. falciparum IPC-5202
Procedure: as §5
as §2, with “Prism). […]” for “Prism).”
as §6, §7

[7] = tested on: luciferase-expressing P. berghei ANKA parasites; experiment: In vivo efficacy against blood stage parasite burden (luciferase imaging); design: species or system Swiss-Webster mice; conditions: i.p. daily for five days; 30mg/kg POM-HEX, 5mg/kg POM-SF
Procedure: as §3

[8] = design: method as in Lin et al., 2020; conditions: ref Lin et al., 2020; cited from earlier work

With O=C1C(P(=O)(O)O)CCCN1O (stereo not drawn) [HEX] the “S.I. + pyruvate (Supplemental Table 4)” value (P. falciparum strain 3D7) was 27.8, the “S.I. - pyruvate (Supplemental Table 4)” value (P. falciparum strain 3D7) was 26.3 and the EC50 (P. falciparum strain 3D7; 3D7, read-out: Parasite EC50 - pyruvate) was 19 ± 1 µM. The EC50 (P. falciparum strain 3D7; 3D7, read-out: half maximal effective concentrations (EC50s), parasite growth) was over 15 µM, the “S.I. Fold Change (Supplemental Table 4)” value (P. falciparum strain 3D7) was 1.1 and the “T.I. Fold change” value (P. falciparum strain 3D7) was 1.1. For the same compound, the “selectivity for antiparasitic activity over erythrocyte toxicity (in words)” value (P. falciparum strain 3D7; parasite growth versus MetHb formation) was “notably selective”, the “T.I. + pyruvate” value (P. falciparum strain 3D7) was 27.8 and the T.I. - pyruvate (P. falciparum strain 3D7) was 26.3. The EC50 (human erythrocytes; read-out: MetHb EC50 + pyruvate (Supplemental Table 4)) was over 500 µM, the EC50 (human erythrocytes; read-out: MetHb EC50 - pyruvate) was over 500 µM and the EC50 (human erythrocytes; read-out: MetHb EC50 - pyruvate (Supplemental Table 4)) was over 500 µM. For the same compound, the survival (P. berghei ANKA; HEX 100 mg/kg daily from day 2, Mantel-Cox) was 14 days, the parasitemia (P. berghei ANKA; d4, blood smear Giemsa, treated from day 2, HEX 100 mg/kg, 2DG 200 mg/kg, control 7.8±3.3%) was 3.5±1.3% and the “clinical scores (signs of cerebral malaria)” value (P. berghei ANKA; d6, HEX 100 mg/kg, vehicle 15.0±7.3) was 3.8±2.0. The “mice alive on day 15” value (P. berghei ANKA; n=5, HEX 100 mg/kg, sacrificed due to high parasitemia and elevated clinical score) was “two mice remained alive”, the half-life ([1]; monkey, 100 mg/kg sub-cutaneous, serum/plasma, 100 mg/kg) was ~ 1 hr and the “oral bioavailability (in words)” value ([1]; monkey, 400 mpk by oral gavage) was “orally bioavailable”. The “time serum concentrations remain above the in vitro EC50 concentrations against Plasmodium” value ([1]; non-human primates, 100mg/kg sub-cutaneous) was “at least four hours”, the “HEX concentration in plasma, 2 hr time point” value ([2]; 400 mg/kg dose SC, detection limit ~1 µM) was “undetectable” and the serum half-life ([2]; 400mg/kg sub-cutaneous) was “minutes”. The concentration at 1 hr ([2]; female, mouse, plasma, 400 mg/kg dose SC, read-out: HEX concentration in plasma, 1hr after injection) was about 170 µM and the “plasma concentrations at 1hr” value [3] was over 500 µM.

In the case of CC(C)(C)C(=O)OCOP(=O)(OCOC(=O)C(C)(C)C)C1CCCN(O)C1=O (stereo not drawn) [POM-HEX], the “S.I. + pyruvate (Supplemental Table 4)” value (P. falciparum strain 3D7) is reported as 1.5, the “S.I. - pyruvate (Supplemental Table 4)” value (P. falciparum strain 3D7) is reported as 0.4 and the EC50 (P. falciparum strain 3D7; 3D7, 72 h, P. falciparum growth, presence of 1mM pyruvate, mean ± s.e.m., read-out: Parasite EC50 + pyruvate) is reported as 0.91 ± 0.15 µM. The EC50 (P. falciparum strain 3D7; 3D7, P. falciparum growth, absence of 1mM pyruvate, mean ± s.e.m., 500 = highest concentration tested, EC50 not resolved, read-out: Parasite EC50 - pyruvate) was 2.9 ± 0.64 µM, the “S.I. Fold Change (Supplemental Table 4)” value (P. falciparum strain 3D7) was 3.7 and the “T.I. Fold change” value (P. falciparum strain 3D7) was 3.7. For the same compound, the “T.I. + pyruvate” value (P. falciparum strain 3D7) was 1.5, the T.I. - pyruvate (P. falciparum strain 3D7) was 0.4 and the EC50 [4] was 1110 ± 530 nM. The EC50 [5] was 1430 ± 540 nM, the EC50 [6] was 966 ± 442 nM and the EC50 (human erythrocytes; MetHb formation, absence of 1mM pyruvate, mean ± s.e.m., 500 = highest concentration tested, EC50 not resolved, read-out: MetHb EC50 - pyruvate) was 1.2 ± 0.19 µM. For the same compound, the EC50 (human erythrocytes; MetHb formation, presence of 1mM pyruvate, mean ± s.e.m., 500 = highest concentration tested, EC50 not resolved, read-out: MetHb EC50 + pyruvate) was 1.4 ± 0.11 µM, the “effect on clinical score, overall survival, cerebral malaria (in words)” value (P. berghei ANKA; 2DG 200 mg/kg, POM-HEX 30 mg/kg) was “no more effective than 2-DG; also recorded: does not prevent cerebral malaria” and the “effect on parasite burden (in words)” value [7] was “does not forestall a lethal parasite burden”. The “conversion in mouse plasma (in words)” value [8] was “rapidly converted to Hemi-POM-HEX”.
